In PubChem BioAssay (NCI):
Several values for one entry are separate records, joined by “and”; a condition that tells them apart may be missing. Equal values may be shown once.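 Method: 48-hour compound exposure of cells in 96-well plates, five concentrations, linear interpolation of endpoints. GI50: concentration for 50% inhibition of growth. Definition used: TGI = concentration required for complete inhibition of growth.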

Experiments:
Assay in all cases: NCI tumour cell line growth inhibition, 48 h
SK-OV-3 ovarian = tested on: SK-OV-3 ovarian
SR leukemia = tested on: SR leukemia
OVCAR-4 ovarian = tested on: OVCAR-4 ovarian
M14 melanoma = tested on: M14 melanoma
ACHN renal = tested on: ACHN renal
T-47D breast = tested on: T-47D breast
UO-31 renal = tested on: UO-31 renal
SK-MEL-5 melanoma = tested on: SK-MEL-5 melanoma
A498 renal = tested on: A498 renal
SNB-19 CNS = tested on: SNB-19 CNS

Compound	TGI (SK-OV-3 ovarian)	TGI (SR leukemia) [µM]	TGI (OVCAR-4 ovarian)	TGI (M14 melanoma) [µM]	TGI (ACHN renal) [µM]	TGI (T-47D breast) [µM]	TGI (UO-31 renal)	TGI (SK-MEL-5 melanoma)	TGI (A498 renal)	TGI (SNB-19 CNS)	GI50 (SK-OV-3 ovarian)	GI50 (OVCAR-4 ovarian)	GI50 (UO-31 renal)	GI50 (SK-MEL-5 melanoma) [µM]	GI50 (SNB-19 CNS) [µM]	GI50 (SR leukemia) [µM]	GI50 (ACHN renal) [µM]	GI50 (T-47D breast) [µM]	GI50 (A498 renal) [µM]
COC1(C)CCC(OS(C)(=O)=O)CO1 (centres undefined)	> 100 µM	> 100	> 100 µM	> 100	> 100	> 100	> 100 µM	> 100 µM	> 100 µM	> 100 µM									
C/C(CC(O)(C(F)(F)F)C(F)(F)F)=N\O	> 10 µM	> 10	> 10 µM	> 10	> 10	> 10		> 10 µM	> 10 µM	> 10 µM									
CCN(CC)CC[n+]1ccc2c(C)c3[nH]c4ccccc4c3c(C)c2c1	6.13 µM and 11.7 µM and 11.4 µM	3.01	1.2 µM and 4.27 µM and 0.483 µM	3.28	32.8	1.19	78.6 µM and 44 µM and 16.8 µM	1.57 µM and 1.28 µM and 2.45 µM	25.2 µM and 28.8 µM and 17.9 µM	1.41 µM and 1.48 µM and 1.33 µM	1.35 µM and 2.62 µM and 3.92 µM	0.192 µM and 0.799 µM and 0.0865 µM	22.6 µM and 10.5 µM and 4.12 µM	0.239	0.251				
O=Cc1c2c(cc3c1CC1(C3)Cc3cc4c(c(C=O)c3C1)CCC4)CCC2	> 100 µM	73	72.1 µM	> 100	43.6	> 100	6.38 µM	> 100 µM	84.7 µM										
O=C1CC(c2cccc([N+](=O)[O-])c2)C2(C(=O)NC(=S)NC2=O)C(c2cccc([N+](=O)[O-])c2)C1 (centres undefined)	> 100 µM	> 100	> 100 µM	58.5	> 100	> 100	> 100 µM	> 100 µM	> 100 µM	58.8 µM									
COc1cccc(C2C(C#N)=C(N)Oc3cc(OCCCCCC[P+](c4ccccc4)(c4ccccc4)c4ccccc4)ccc32)c1 (centres undefined)	3.26 µM	1.92	1.51 µM		4.92	1.95	4.69 µM		2.45 µM	1.44 µM	1.41 µM	0.384 µM	1.91 µM		0.366	0.36	2.04	0.354	1.03
CC(C)(C)c1cc(C(C)(C)C)c(SC2OC(CO)C(O)C(O)C2O)c(O)c1O (centres undefined)	32.9 µM	> 53	> 61.9 µM	> 100	22.8	72.4	79.2 µM	18.6 µM	34.8 µM	24.5 µM									
C#CCn1c(I)cc2c(c1=O)COC(=O)[C@]2(O)CC	> 100 µM	> 100	> 100 µM	> 100	> 100	> 100	> 100 µM	> 100 µM	> 100 µM	> 100 µM									
O=C(NC1=C(Cl)C(=O)c2ccccc2C1=O)C(=O)c1c(O)c2ccccc2oc1=O	27.4 µM	80.6	19.4 µM	4.4	14	23.5	21.1 µM	1.6 µM	33.9 µM	16 µM									
C(=Nc1ccc(-c2nc3ccccc3s2)cc1)c1cccs1	> 100 µM	> 100	> 100 µM	> 100	> 100	> 100	> 100 µM	> 100 µM	76.6 µM	> 100 µM									
C/C(=N\Nc1nc2cc(F)ccc2s1)c1ccccn1	5.37 µM	> 100	3.32 µM	4.07	1.35	> 100	0.314 µM	5.49 µM	> 100 µM	> 41.7 µM									
C[C@@H]1C[C@@H]2OC(=O)[C@]3(C)[C@H]2[C@@H](OC3(C)O)[C@]2(C)C(=O)C=C[C@@H]12 (some centres undefined)	> 100 µM	28.5	35.9 µM	41.8	45	44.5	> 100 µM	51.2 µM	70.6 µM	> 100 µM									
Cc1cc(NS(=O)(=O)c2ccc(Nc3c4ccccc4nc4c(C(=O)NC(CO)(CO)CO)cccc34)cc2)no1	> 100 µM	91.4	> 100 µM	> 100	> 100	> 100	> 100 µM	> 100 µM	> 100 µM	> 100 µM									
COC(=O)[C@@H]1C=CCN1S(=O)(=O)c1ccc(C)cc1	> 100 µM	58.8	> 100 µM	> 100	> 100	> 100	> 100 µM	> 100 µM	> 100 µM	> 100 µM									
CC(=O)OC1C2CCC3CC2C2(SCCS2)C31 (centres undefined)	> 100 µM	> 100	> 100 µM	> 100	> 100	> 100	> 100 µM	> 100 µM	> 100 µM	> 100 µM									
CC(C)=CCNc1ncnc2c1ncn2CCC(=O)O	> 100 µM	> 100	> 100 µM	> 100	> 100	> 100	> 100 µM	> 100 µM	> 100 µM	> 100 µM									
